According to patent publication US20240103005A1, “N-ACRYLOYLINDOLES AND METHODS OF USE” (The University of Hong Kong, priority 2022, published 2024):

Legend:
[1] = Stability in aqueous buffer solution over time (LC-MS); type: physicochemical
Description: Stability of NAIA-5 in Aqueous Buffer Solution Over Time
NAIA-5 (10 μM) was dissolved in PBS/MeOH solution mixture (4:1, v/v; 500 μL) and stay at room temperature. At predetermined time intervals, an aliquot of the reaction mixture (10 μL) was sent for LC-MS analysis on Waters Autopurification System using a SunFire C18 HPLC column (50×4.6 mm with 5 μm diameter particles, Waters). Separation was achieved by gradient elution from 5% to 100% MeCN in water (constant 0.1 vol % formic acid) over 4 min, isocratic elution with 100% MeCN (with 0.1 vol % formic acid) from 4 to 8 min and returning to 5% MeCN in water (with 0.1 vol % formic acid) and equilibrated for 2 min. Selected ion chromatograms, with m/z=325 corresponding to [NAIA-5+H]^+, were extracted and analyzed by integrating the area under curve.
As fast-reacting probes are often susceptible to hydrolysis, we sought to investigate the aqueous stability of NAIA-C5 amide. […] Taking the excellent reaction kinetics and a mere 14% degradation in 30 min into account, NAIA-C5 amide was considered to be a useful tool in cysteine profiling (FIG. 17C and FIG. 17F).

HepG2 cell lysates = assay: MS-based ABPP to identify liganded cysteines in HepG2 cell lysates; type: biochemical, human; settings: 10 μM, 1 h
Description: MS-Based ABPP Experiments to Identify Liganded Cysteines in HepG2 Cell Lysates by NAIA-5 or IAA.
HepG2 cells were lysed in PBS by sonication. After BCA assay and protein normalization, HepG2 cell lysates in PBS (2 mg/mL, 2 mL) were incubated with NAIA-5 and IAA (10 μM), respectively, at room temperature for 1 h with vortexing. Then, the samples were incubated with a master mix solution for CuAAC reaction, containing CuSO4, TBTA, DTB-PEG-azide and TECP (final concentrations are 1 mM, 100 μM, 100 μM and 1 mM respectively). After incubation at room temperature for 1 h with vortexing, pre-chilled acetone (12 mL) was added to the samples and proteins were allowed to precipitate out by storing at −20° C. overnight. The samples were centrifuged at 5,000 g at 4° C. for 10 min, and the supernatant was discarded. The protein pellets labeled by NAIA-5 and IAA were then combined and washed with pre-chilled methanol twice. The protein pellets were then re-dispersed in 1.2% SDS in PBS (w/v), followed by heating at 80° C. for 5 min. Any insoluble solids were discarded by centrifugation at 6,500 g for 5 min, and the supernatant were transferred to PBS solution containing Pierce™ Streptavidin Agarose beads (20349; Thermo Scientific) with final concentration of SDS equal to 0.2% (w/v). The samples and beads were incubated at 4° C. with rotation overnight. […]

C#CCCCCNC(=O)COc1ccc2c(ccn2C(=O)C=C)c1 [NAIA-5]
change of compound level in aqueous buffer solution over time (in words) ([1]; 10 μM, PBS/MeOH 4:1, room temperature): No significant changes in NAIA-5 level in the aqueous buffer solution over time
time stable in PBS solution ([1]; pH 7.4, absence of Cys): ≥ 3 h
off-target labeling onto other amino acids (HepG2 cell lysates): less undesired off-target labeling onto other amino acids as compared to IAA
